Measurements: US10398676B2, “Use of alpha-hydroxy carbonyl compounds as reducing agents” (Morvus Technology Ltd, priority 2005, dated 2019)
Marks after values point to notes of the source that are not given here.

Tests used:
[1] = Reduction of tretazicar by α-hydroxycarbonyl compounds, HPLC initial rate (Example 8); assay type: physicochemical; details: 10 mM test compound, 100 μM tretazicar, 0.1 M sodium bicarbonate buffer; for Initial Rate of tretazicar reduction, pH 9: pH 9, 37° C.; for Initial Rate of tretazicar reduction, pH 10: pH 10, 37° C.
Description: (§1) The assay was started by addition of 100 μL of 100 mM test compound (compound of formula I) in water to a mixture of tretazicar (100 μM) in 0.1 M sodium bicarbonate buffer, pH 9 or pH 10, to give a final volume of 1 mL. The mixture was incubated at 37° C. and aliquots (10 μL) were taken every 6 min and assayed immediately by HPLC [Partisil 10 SCX (4.2×150 mm) (Whatman, Maidstone, Kent, U.K.] eluted isocratically with 0.13 M sodium phosphate (pH 5) at 1.5 ml/min). The concentration of tretazicar was determined in each sample by reference of the corresponding peak area with an external standard, quantified by absorbance at 325 nm. Initial rates were calculated by curve fitting (FigP, Biosoft, Cambridge, U.K.). Reduction products were identified by retention time relative to an authentic standard.

[2] = Reduction of NADP+ by α-hydroxycarbonyl compounds (Example 7); assay type: physicochemical; details: 1 mM test compound, 200 μM NADP+, pH 10 (1 mM NaHCO3 buffer), over 2 minutes
Description: A 10 μL aliquot of test compound (at a concentration of 100 mM in water) is added to a 200 μM NADP^+ aqueous solution (approximately 990 μL), buffered to pH 10 (1 mM NaHCO3 buffer). The final concentration of the test compound in the assay solution was 1 mM. Reduction of NADP^+ was then monitored by measuring the increase, over the course of 2 minutes, of absorption at 350 nm on a spectrophotometer. Initial rates were recorded as the change in A350 per minute.

[3] = DHA reduction of prodrugs and nitro compounds, HPLC initial rate (Examples 5 and 6); assay type: physicochemical; details: 100 μM compound, 10 mM DHA, 37° C.
Description: The assay mixture contained the compound under test (100 μM) and DHA (10 mM) in a final reaction volume of 1 mL of sodium phosphate buffer (of the required pH). The reaction was started by addition of DHA and the mixture is incubated at 37° C.

[4] = test system: Chinese Hamster V79 cells; assay: Survival of V79 cells, colony forming ability (FIG. 7); assay type: cell-based; details: 10 or 100 μM E09 with 10 mM DHA, 2 hours, pH 7.5, 37° C.
Description: The survival of V79 cells was determined using the following method: • Volumes (1 mL, 2×10^5 cells/mL) of V79 cells in 10 mM phosphate buffer (pH 7.5) containing 140 mM NaCl were incubated at 37° C. and then reagents (as indicated above, at the concentrations stipulated) were added (except for the control experiment). After a 2 hour incubation, the cells were harvested by centrifugation, diluted out serially (4×10-fold) and the cells plated into growth medium and assayed for their colony forming ability after growth for 1 week in a humidified 5% CO2 atmosphere.

[5] = DHA reduction of prodrugs and nitro compounds, HPLC initial rate (Examples 5 and 6); assay type: physicochemical; details: 100 μM compound, 1 mM DHA employed (instead of 10 mM DHA), 37° C.
DNA = details: cited from earlier work
[6] = humans, phase I; cited from earlier work
[7] = Chemical activation of tretazicar by DHA in bicarbonate buffer (Example 1); assay type: physicochemical; details: 10 mM DHA, 100 μM tretazicar, 0.1M sodium bicarbonate buffer, 1 ml
Description: as §1, with “DHA” for “test compound (compound of formula I)”, “0.1M” for “0.1 M”, “pH10,” for “pH 10,”, “ml.” for “mL.”, “(42×150” for “(4.2×150”, “mL/min).” for “ml/min).”

[8] = bioactivated versus non-activated; cited from earlier work

Molecule: O=CC(O)CO (racemic) [D,L-Glyceraldehyde]
- Initial Rate of tretazicar reduction, pH 9 [1]: 0.53 nmoles/min/mL
- Initial Rate of tretazicar reduction, pH 10 [1]: 0.62 nmoles/min/mL
- Rate of NADP+ reduction [2]: 0.015 change in A350 per minute

Molecule: O=C(CO)[C@H](O)[C@@H](O)CO [L-Xylulose]
- Initial Rate of tretazicar reduction, pH 9 [1]: < 0.01 nmoles/min/mL
- Initial Rate of tretazicar reduction, pH 10 [1]: 0.28 nmoles/min/mL
- Rate of NADP+ reduction [2]: 0.003 change in A350 per minute

Molecule: O=CC(O)C(O)CO (stereo not drawn) [D(−)-Erthrose]
- Initial Rate of tretazicar reduction, pH 9 [1]: < 0.01 nmoles/min/mL
- Initial Rate of tretazicar reduction, pH 10 [1]: 0.28 nmoles/min/mL
- Rate of NADP+ reduction [2]: 0.004 change in A350 per minute

Molecule: Hydroxyacetone [Hydroxyacetone (acetol)]
- Rate of NADP+ reduction [2]: 0.003 change in A350 per minute

Molecule: O=[N+]([O-])c1ccc(CO)cc1 [4-nitrobenzyl alcohol]
- Initial Rate, pH 8 [3]: < 0.01 nmoles/min/mL
- Initial Rate, pH 9 [3]: < 0.01 nmoles/min/mL
- Initial Rate, pH 10 [3]: 0.105 nmoles/min/mL
- Initial Rate, pH 10.6 [3]: 0.087 nmoles/min/mL

Molecule: Cn1c(/C=C/CO)c(CO)c2c1C(=O)C=C(N1CC1)C2=O [E09, 3-[5-aziridinyl-4,7-dioxo-3-hydroxymethyl-1-methyl-1H-indol-2-yl]-prop-β-ene-α-ol]
- INITIAL RATE, 0.1 M PO4, pH7.5 [3]: 0.272 nmoles/min/mL
- INITIAL RATE, 0.1 M PO4, pH8 [3]: 0.605 nmoles/min/mL
- cytotoxic effect (percentage survival of V79 cells) on addition of DHA [4]: greatly enhanced

Molecule: CC(=O)C(C)O (stereo not shown) [3-hydroxy-2-butanone]
- Initial Rate of tretazicar reduction, pH 9 [1]: 0.034 nmoles/min/mL
- Initial Rate of tretazicar reduction, pH 10 [1]: 0.184 nmoles/min/mL

Molecule: CO[C@@]12[C@H](COC(N)=O)C3=C(C(=O)C(C)=C(N)C3=O)N1C[C@@H]1N[C@@H]12 [Mitomycin C]
- INITIAL RATE, pH7.5 column, (PBS) ([3]; PBS): 1.524 (PBS) nmoles/min/mL
- Initial Rate, pH 7 ([3]; pH 7): 1.019 nmoles/min/mL
- Initial Rate, pH 9 [3]: Too fast to measure
- INITIAL RATE, 0.1 M PO4, pH8, 1 mM DHA ([5]; pH8): 0.052^a nmoles/min/mL
- Initial Rate, pH 8, 1 mM DHA ([5]; pH8): 0.052 nmoles/min/mL
- Initial Rate, pH 8.5, 1 mM DHA ([5]; pH 8.5): 0.103 nmoles/min/mL

Molecule: Cc1ncc([N+](=O)[O-])n1CCO [Metronidazole, 2-methyl-5-nitro-1H-imidazole-1-ethanol]
- INITIAL RATE, 0.1 M PO4, pH7.5 [3]: 0.131 nmoles/min/mL
- INITIAL RATE, 0.1 M PO4, pH8 [3]: 0.369 nmoles/min/mL
- Initial Rate, pH 8 [3]: 0.369 nmoles/min/mL
- Initial Rate, pH 9 [3]: 0.890 nmoles/min/mL
- Initial Rate, pH 10 [3]: 1.239 nmoles/min/mL
- Initial Rate, pH 10.6 [3]: 0.807 nmoles/min/mL

Molecule: NC(=O)c1cc(N2CC2)c([N+](=O)[O-])cc1[N+](=O)[O-] [Tretazicar, 5-(aziridin-1-yl)-2,4-dinitrobenzamide]
- INITIAL RATE, 0.1 M PO4, pH7.5 [3]: <0.01 nmoles/min/mL
- INITIAL RATE, 0.1 M PO4, pH8 [3]: 0.158 nmoles/min/mL
- Initial Rate, pH 8 [3]: 0.158 nmoles/min/mL
- Initial Rate, pH 9 [3]: 0.933 nmoles/min/mL
- Initial Rate, pH 10 [3]: 1.248 nmoles/min/mL
- Initial Rate, pH 10.6 [3]: 5.801 nmoles/min/mL
- increase in the amount of DNA-bound drug (DNA; Walker cells compared to cells which cannot reduce tretazicar (Friedlos et al, 1992)): 10 fold
- interstrand crosslinks as share of total lesions / total DNA reactions (DNA; literature values (Friedlos et al, 1992; Knox et al, 1986)): up to 70%
- MTD [6]: 37.5 mg/m^2
- dose safely administered without any significant toxicity [6]: up to 24 mg/m^2
- rate of tretazicar reduction by DHA at pH 9 ([7]; pH 9, 37° C.): 0.92 nmol/min
- rate of tretazicar reduction by DHA at pH 10 ([7]; pH 10, 37° C.): 0.69 nmol/min
- dose modification resulting from bioactivation (increase in cytotoxicity) [8]: up to 100,000 fold

Molecule: O=C(CO)CO [Dihydroxyacetone (dimer), 1,3-dihydroxy-2-propanone]
- Initial Rate of tretazicar reduction, pH 9 [1]: 0.92 nmoles/min/mL
- Initial Rate of tretazicar reduction, pH 10 [1]: 0.69 nmoles/min/mL
- Rate of NADP+ reduction [2]: 0.063 change in A350 per minute

Molecule: O=[N+]([O-])c1nccn1CC(O)CN1CC1 (stereo not shown) [RSU-1069/RB-1645, 1-(1-aziridinyl)-3-(2-nitro-1-imidazolyl)-2-propanol]
- INITIAL RATE, 0.1 M PO4, pH7.5 [3]: <0.01 nmoles/min/mL
- INITIAL RATE, 0.1 M PO4, pH8 [3]: 2.57 nmoles/min/mL

Molecule: O=C(O)c1cc([N+](=O)[O-])c(Cl)c([N+](=O)[O-])c1 [4-chloro-3,5-dinitrobenzoic acid]
- Initial Rate, pH 8 [3]: 0.195 nmoles/min/mL
- Initial Rate, pH 9 [3]: 1.293 nmoles/min/mL
- Initial Rate, pH 10 [3]: 1.727 nmoles/min/mL
- Initial Rate, pH 10.6 [3]: 2.442 nmoles/min/mL

Molecule: Nc1n[n+]([O-])c2ccccc2[n+]1[O-] [Tirapazamine, 3-amino-1,2,4-benzotriazine-1,4-dioxide]
- INITIAL RATE, 0.1 M PO4, pH7.5 [3]: 0.523 nmoles/min/mL
- INITIAL RATE, 0.1 M PO4, pH8 [3]: 0.512 nmoles/min/mL
- Initial Rate, pH 7.5 [3]: 0.523 nmoles/min/mL
- Initial Rate, pH 8 [3]: 0.512 nmoles/min/mL
- Initial Rate, pH 8.5 [3]: 0.639 nmoles/min/mL
- Initial Rate, pH 9 [3]: 3.503 nmoles/min/mL
- Initial Rate, pH 10 [3]: 4.209 nmoles/min/mL

Molecule: Cc1cc(Cl)c([N+](=O)[O-])cc1[N+](=O)[O-] [5-chloro-2,4-dinitrotoluene]
- Initial Rate, pH 8 [3]: 0.132 nmoles/min/mL
- Initial Rate, pH 9 [3]: 0.499 nmoles/min/mL
- Initial Rate, pH 10 [3]: 0.690 nmoles/min/mL
- Initial Rate, pH 10.6 [3]: 1.703 nmoles/min/mL

Molecule: NC(=O)N/N=C/c1ccc([N+](=O)[O-])o1 [Nitrofurazone, 2-[(5-nitro-2-furanyl)methylene]hydrazinecarboxamide]
- INITIAL RATE, 0.1 M PO4, pH7.5 [3]: 0.177 nmoles/min/mL
- INITIAL RATE, 0.1 M PO4, pH8 [3]: 0.203 nmoles/min/mL
- Initial Rate, pH 7.5 [3]: 0.177 nmoles/min/mL
- Initial Rate, pH 8 [3]: 0.203 nmoles/min/mL
- Initial Rate, pH 8.5 [3]: 0.260 nmoles/min/mL
- Initial Rate, pH 9 [3]: 2.390 nmoles/min/mL
- Initial Rate, pH 10 [3]: 3.789 nmoles/min/mL

Molecule: COCC(O)Cn1ccnc1[N+](=O)[O-] (stereo not shown) [Misonidazole]
- INITIAL RATE, 0.1 M PO4, pH7.5 [3]: 0.221 nmoles/min/mL
- INITIAL RATE, 0.1 M PO4, pH8 [3]: 1.922 nmoles/min/mL
- Initial Rate, pH 8 [3]: 1.922 nmoles/min/mL
- Initial Rate, pH 9 [3]: 1.851 nmoles/min/mL
- Initial Rate, pH 10 [3]: 3.180 nmoles/min/mL

Molecule: Glycolaldehyde [Glycolaldehyde dimer]
- Initial Rate of tretazicar reduction, pH 9 [1]: 0.18 nmoles/min/mL
- Initial Rate of tretazicar reduction, pH 10 [1]: 0.14 nmoles/min/mL
- Rate of NADP+ reduction [2]: 0.029 change in A350 per minute
